Target: T1, panel of 442 kinases (Homo sapiens, UniProt Q13163)
T1 construct: purchased KINOMEscan
T1 sequence (Q13163 1-448): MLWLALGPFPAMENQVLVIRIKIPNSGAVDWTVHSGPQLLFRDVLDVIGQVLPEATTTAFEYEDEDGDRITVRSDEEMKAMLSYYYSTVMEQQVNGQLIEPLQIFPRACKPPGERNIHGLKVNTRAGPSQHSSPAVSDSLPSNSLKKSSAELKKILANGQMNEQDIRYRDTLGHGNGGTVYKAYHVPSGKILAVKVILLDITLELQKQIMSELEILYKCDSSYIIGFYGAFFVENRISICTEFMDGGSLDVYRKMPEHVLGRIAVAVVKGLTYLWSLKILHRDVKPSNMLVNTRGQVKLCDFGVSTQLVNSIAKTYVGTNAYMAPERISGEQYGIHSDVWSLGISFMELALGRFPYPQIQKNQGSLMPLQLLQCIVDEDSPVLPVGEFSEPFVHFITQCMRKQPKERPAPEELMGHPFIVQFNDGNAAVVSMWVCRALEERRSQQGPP
Type: binding
Conditions: Compound Concentration 10 µM
From the text: We assessed the selectivity of members of this scaffold using the KINOMEscan methodology across a near comprehensive panel of 442 kinases [[18,27]].

Going from `COc1cc(C(=O)N2CCC(N3CCN(C)CC3)CC2)ccc1Nc1ncc2c(n1)N(C)c1ccccc1C(=O)N2C` [15 (LRRK2-IN-1)] to `COc1cc(C(=O)N2CCC(N3CCN(C)CC3)CC2)ccc1Nc1ncc2c(n1)N(C1CCCC1)c1ccccc1C(=O)N2C` [Compound 25, 11-cyclopentyl-2-((2-methoxy-4-(4-(4-methylpiperazin-1-yl)piperidine-1-carbonyl)phenyl)amino)-5-methyl-5H-benzo[e]pyrimido[5,4-b][1,4]diazepin-6(11H)-one], the “KINOMEscan: MEK5” value falls from 85 to 83.

Compared with `CCOc1cc(C(=O)N2CCC(N3CCN(C)CC3)CC2)ccc1Nc1ncc2c(n1)N(C1CCCC1)c1ccccc1C(=O)N2C` [Compound 26], `COc1cc(C(=O)N2CCC(N3CCN(C)CC3)CC2)ccc1Nc1ncc2c(n1)N1CCc3cccc(c31)C(=O)N2C` [Compound 24] is lower in “KINOMEscan: MEK5” value: 100 for the first, 28 for the second.

Source: publication PMC3914206
